Data taken from publication PMC5518309 (ChemMedChem, 2014).
Values belong to the compound of their own block, whether it stands above or below them. Numbered stars: 1 amine (or outer) side, 2 acyl side, 3 side chain; on linkers, the order of the positions; unused ones are H or OH. Side chains are listed from the residue outwards. Peptide text beside a SMILES is read from it. * marks the point of attachment. X1 = CN(C)c1ccc2c(c1)Oc1cc(N(C)C)ccc1C21OC(=O)c2ccc(C(=O)*)cc21; γGlu = O=C(O)[C@H](CCC(=O)[*:2])N[*:1]; Palmitoyl = CCCCCCCCCCCCCCCC(=O)*; Octanoyl = CCCCCCCC(=O)*; Propionyl = CCC(=O)*

What was measured:
[1] = Stability test in human blood plasma; assay type: in vitro ADME; details: for half-life at 10 μM: human
[2] = Metabolic stability in porcine liver homogenates; assay type: in vitro ADME; details: pig, porcine liver homogenate (supernatant)
[3] = target: hY4R (Homo sapiens, UniProt P50391); experiment: Inositol phosphate accumulation assay, hY4R; assay type: cell-based
hY4R, sequence (P50391 whole entry): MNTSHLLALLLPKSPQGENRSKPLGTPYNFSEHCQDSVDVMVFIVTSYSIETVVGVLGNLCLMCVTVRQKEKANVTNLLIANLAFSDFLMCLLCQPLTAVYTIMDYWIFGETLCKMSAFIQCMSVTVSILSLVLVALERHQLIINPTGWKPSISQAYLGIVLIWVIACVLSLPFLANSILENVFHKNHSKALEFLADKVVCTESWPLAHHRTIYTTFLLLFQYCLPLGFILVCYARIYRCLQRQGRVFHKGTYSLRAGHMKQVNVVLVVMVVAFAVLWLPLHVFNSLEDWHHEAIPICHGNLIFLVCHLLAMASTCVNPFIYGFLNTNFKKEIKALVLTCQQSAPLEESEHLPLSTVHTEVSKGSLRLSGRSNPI

[4] = target: T1, hY1R (Homo sapiens, UniProt P25929); experiment: Inositol phosphate accumulation assay, hY1R; assay type: cell-based
T1 sequence (P25929 1-384): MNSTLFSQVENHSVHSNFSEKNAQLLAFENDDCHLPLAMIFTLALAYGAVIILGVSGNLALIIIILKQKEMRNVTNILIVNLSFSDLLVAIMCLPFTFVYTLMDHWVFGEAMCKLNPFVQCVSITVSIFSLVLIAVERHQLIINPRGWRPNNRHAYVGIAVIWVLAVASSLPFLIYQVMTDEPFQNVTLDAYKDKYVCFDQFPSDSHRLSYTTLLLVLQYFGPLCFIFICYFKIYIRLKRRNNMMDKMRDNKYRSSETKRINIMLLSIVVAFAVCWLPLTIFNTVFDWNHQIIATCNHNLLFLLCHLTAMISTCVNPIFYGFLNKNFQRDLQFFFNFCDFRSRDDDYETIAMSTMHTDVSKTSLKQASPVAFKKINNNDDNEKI

[5] = target: T2, hY2R (Homo sapiens, UniProt P49146); experiment: Inositol phosphate accumulation assay, hY2R; assay type: cell-based
T2 sequence (P49146 1-381): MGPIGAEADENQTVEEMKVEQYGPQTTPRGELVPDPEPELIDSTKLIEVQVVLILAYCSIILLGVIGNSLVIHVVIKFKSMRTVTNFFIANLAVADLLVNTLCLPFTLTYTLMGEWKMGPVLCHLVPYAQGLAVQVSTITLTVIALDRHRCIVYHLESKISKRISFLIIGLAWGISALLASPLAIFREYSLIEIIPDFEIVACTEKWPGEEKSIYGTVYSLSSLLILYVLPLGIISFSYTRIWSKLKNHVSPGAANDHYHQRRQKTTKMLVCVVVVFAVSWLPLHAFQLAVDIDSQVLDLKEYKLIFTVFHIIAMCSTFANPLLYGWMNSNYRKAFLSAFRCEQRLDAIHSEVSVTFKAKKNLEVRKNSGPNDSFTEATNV

[6] = target: T3, hY5R (Homo sapiens, UniProt Q15761); experiment: Inositol phosphate accumulation assay, hY5R; assay type: cell-based
T3 sequence (Q15761 1-445): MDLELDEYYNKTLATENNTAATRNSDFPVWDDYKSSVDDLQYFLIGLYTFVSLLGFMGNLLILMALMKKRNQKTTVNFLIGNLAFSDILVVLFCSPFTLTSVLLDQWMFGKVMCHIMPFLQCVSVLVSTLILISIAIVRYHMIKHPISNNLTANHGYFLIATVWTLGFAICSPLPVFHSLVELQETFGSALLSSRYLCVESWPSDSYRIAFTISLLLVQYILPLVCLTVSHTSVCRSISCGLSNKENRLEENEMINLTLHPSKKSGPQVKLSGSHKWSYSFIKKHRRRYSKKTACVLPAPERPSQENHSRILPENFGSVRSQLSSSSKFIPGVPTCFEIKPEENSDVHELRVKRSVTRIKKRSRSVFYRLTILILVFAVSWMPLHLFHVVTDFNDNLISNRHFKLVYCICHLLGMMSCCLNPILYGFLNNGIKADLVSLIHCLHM

half-life at 10 μM [1]: 474 ± 17.3 h
half-life at 10 μM [2]: 46.7 ± 6.6 h
Compound: CCC(=O)N[C@@H](CCC(=O)NCCCC[C@H](NC(=O)[C@H](CC(N)=O)NC(=O)[C@@H](NC(=O)[C@H](Cc1ccc(O)cc1)NC(=O)[C@H](CCCNC(=N)N)NC(=O)[C@H](CCCNC(=N)N)NC(=O)[C@H](CC(C)C)NC(=O)[C@H](CC(=O)O)NC(=O)[C@H](C)NC(=O)[C@H](C)NC(=O)[C@H](Cc1ccc(O)cc1)NC(=O)[C@H](CCC(N)=O)NC(=O)[C@H](C)NC(=O)[C@H](CCSC)NC(=O)[C@H](CCC(N)=O)NC(=O)[C@H](CCC(=O)O)NC(=O)[C@@H]1CCCN1C(=O)[C@@H](NC(=O)[C@H](C)NC(=O)[C@H](CC(N)=O)NC(=O)[C@H](CC(=O)O)NC(=O)CNC(=O)[C@@H]1CCCN1C(=O)[C@H](Cc1ccc(O)cc1)NC(=O)[C@@H](NC(=O)[C@@H]1CCCN1C(=O)[C@H](CCC(=O)O)NC(=O)[C@H](CC(C)C)NC(=O)[C@@H]1CCCN1C(=O)c1ccc2c(c1)C1(OC2=O)c2ccc(N(C)C)cc2Oc2cc(N(C)C)ccc21)C(C)C)[C@@H](C)O)[C@@H](C)CC)C(=O)N[C@@H](CC(C)C)C(=O)N[C@H](C(=O)N[C@@H](CCCNC(=N)N)C(=O)N1CCC[C@H]1C(=O)N[C@@H](CCCNC(=N)N)C(=O)N[C@@H](Cc1ccc(O)cc1)C(N)=O)[C@@H](C)O)C(=O)O [15b, TAMRA-[K^30(E-Prop)]hPP2–36] (X1-PLEPVYPGDNATPEQMAQYAADLRRYINK([γGlu-Propionyl])LTRPRY-NH2)

fold increased half-life in human blood plasma compared to control peptide 14b ([1]; 37°C): more than 10 fold
half-life at 10 μM [1]: 1090 ± 282 h
half-life at 10 μM [2]: 11.8 ± 0.8 h
Compound: CCCCCCCCCCCCCCCC(=O)N[C@@H](CCC(=O)NCCCC[C@H](NC(=O)[C@H](CC(N)=O)NC(=O)[C@@H](NC(=O)[C@H](Cc1ccc(O)cc1)NC(=O)[C@H](CCCNC(=N)N)NC(=O)[C@H](CCCNC(=N)N)NC(=O)[C@H](CC(C)C)NC(=O)[C@H](CC(=O)O)NC(=O)[C@H](C)NC(=O)[C@H](C)NC(=O)[C@H](Cc1ccc(O)cc1)NC(=O)[C@H](CCC(N)=O)NC(=O)[C@H](C)NC(=O)[C@H](CCSC)NC(=O)[C@H](CCC(N)=O)NC(=O)[C@H](CCC(=O)O)NC(=O)[C@@H]1CCCN1C(=O)[C@@H](NC(=O)[C@H](C)NC(=O)[C@H](CC(N)=O)NC(=O)[C@H](CC(=O)O)NC(=O)CNC(=O)[C@@H]1CCCN1C(=O)[C@H](Cc1ccc(O)cc1)NC(=O)[C@@H](NC(=O)[C@@H]1CCCN1C(=O)[C@H](CCC(=O)O)NC(=O)[C@H](CC(C)C)NC(=O)[C@@H]1CCCN1C(=O)c1ccc2c(c1)C1(OC2=O)c2ccc(N(C)C)cc2Oc2cc(N(C)C)ccc21)C(C)C)[C@@H](C)O)[C@@H](C)CC)C(=O)N[C@@H](CC(C)C)C(=O)N[C@H](C(=O)N[C@@H](CCCNC(=N)N)C(=O)N1CCC[C@H]1C(=O)N[C@@H](CCCNC(=N)N)C(=O)N[C@@H](Cc1ccc(O)cc1)C(N)=O)[C@@H](C)O)C(=O)O [18b, TAMRA-[K^30(E-Pam)]hPP2–36] (X1-PLEPVYPGDNATPEQMAQYAADLRRYINK([γGlu-Palmitoyl])LTRPRY-NH2)

half-life at 10 μM [1]: ~100 h
half-life at 10 μM [2]: 19.7 ± 0.4 h
Compound: CC[C@H](C)[C@H](NC(=O)[C@H](Cc1ccc(O)cc1)NC(=O)[C@H](CCCNC(=N)N)NC(=O)[C@H](CCCNC(=N)N)NC(=O)[C@H](CC(C)C)NC(=O)[C@H](CC(=O)O)NC(=O)[C@H](C)NC(=O)[C@H](C)NC(=O)[C@H](Cc1ccc(O)cc1)NC(=O)[C@H](CCC(N)=O)NC(=O)[C@H](C)NC(=O)[C@H](CCSC)NC(=O)[C@H](CCC(N)=O)NC(=O)[C@H](CCC(=O)O)NC(=O)[C@@H]1CCCN1C(=O)[C@@H](NC(=O)[C@H](C)NC(=O)[C@H](CC(N)=O)NC(=O)[C@H](CC(=O)O)NC(=O)CNC(=O)[C@@H]1CCCN1C(=O)[C@H](Cc1ccc(O)cc1)NC(=O)[C@@H](NC(=O)[C@@H]1CCCN1C(=O)[C@H](CCC(=O)O)NC(=O)[C@H](CC(C)C)NC(=O)[C@@H]1CCCN1)C(C)C)[C@@H](C)O)C(=O)N[C@@H](CC(N)=O)C(=O)N[C@@H](CCCCNC(=O)c1ccc2c(c1)C1(OC2=O)c2ccc(N(C)C)cc2Oc2cc(N(C)C)ccc21)C(=O)N[C@@H](CC(C)C)C(=O)N[C@H](C(=O)N[C@@H](CCCNC(=N)N)C(=O)N1CCC[C@H]1C(=O)N[C@@H](CCCNC(=N)N)C(=O)N[C@@H](Cc1ccc(O)cc1)C(N)=O)[C@@H](C)O [compound 20, [K^30(TAMRA)]hPP2–36] (H-PLEPVYPGDNATPEQMAQYAADLRRYINK(X1)LTRPRY-NH2)

half-life at 10 μM [1]: 281 ± 26.7 h
half-life at 10 μM [2]: 14.6 ± 2.8 h
Compound: CCCCCCCC(=O)N[C@@H](CCC(=O)NCCCC[C@H](NC(=O)[C@H](CC(N)=O)NC(=O)[C@@H](NC(=O)[C@H](Cc1ccc(O)cc1)NC(=O)[C@H](CCCNC(=N)N)NC(=O)[C@H](CCCNC(=N)N)NC(=O)[C@H](CC(C)C)NC(=O)[C@H](CC(=O)O)NC(=O)[C@H](C)NC(=O)[C@H](C)NC(=O)[C@H](Cc1ccc(O)cc1)NC(=O)[C@H](CCC(N)=O)NC(=O)[C@H](C)NC(=O)[C@H](CCSC)NC(=O)[C@H](CCC(N)=O)NC(=O)[C@H](CCC(=O)O)NC(=O)[C@@H]1CCCN1C(=O)[C@@H](NC(=O)[C@H](C)NC(=O)[C@H](CC(N)=O)NC(=O)[C@H](CC(=O)O)NC(=O)CNC(=O)[C@@H]1CCCN1C(=O)[C@H](Cc1ccc(O)cc1)NC(=O)[C@@H](NC(=O)[C@@H]1CCCN1C(=O)[C@H](CCC(=O)O)NC(=O)[C@H](CC(C)C)NC(=O)[C@@H]1CCCN1C(=O)c1ccc2c(c1)C1(OC2=O)c2ccc(N(C)C)cc2Oc2cc(N(C)C)ccc21)C(C)C)[C@@H](C)O)[C@@H](C)CC)C(=O)N[C@@H](CC(C)C)C(=O)N[C@H](C(=O)N[C@@H](CCCNC(=N)N)C(=O)N1CCC[C@H]1C(=O)N[C@@H](CCCNC(=N)N)C(=O)N[C@@H](Cc1ccc(O)cc1)C(N)=O)[C@@H](C)O)C(=O)O [16b, TAMRA-[K^30(E-Capr)]hPP2–36] (X1-PLEPVYPGDNATPEQMAQYAADLRRYINK([γGlu-Octanoyl])LTRPRY-NH2)

EC50 [3]: 1.2 nM
Emax ([3]; read-out: hY4R Emax): 78 ± 4%
EC50 [4]: 76.2 nM
Emax ([4]; read-out: hY1R Emax): 85 ± 3%
EC50 [5]: 21.1 nM
Emax ([5]; read-out: hY2R Emax): 92 ± 3%
EC50 [6]: 1.6 nM
Emax ([6]; read-out: hY5R Emax): 75 ± 5%
Compound: CCCCCCCCCCCCCCCC(=O)N[C@@H](CCC(=O)NCCCC[C@H](NC(=O)[C@H](CC(N)=O)NC(=O)[C@@H](NC(=O)[C@H](Cc1ccc(O)cc1)NC(=O)[C@H](CCCNC(=N)N)NC(=O)[C@H](CCCNC(=N)N)NC(=O)[C@H](CC(C)C)NC(=O)[C@H](CC(=O)O)NC(=O)[C@H](C)NC(=O)[C@H](C)NC(=O)[C@H](Cc1ccc(O)cc1)NC(=O)[C@H](CCC(N)=O)NC(=O)[C@H](C)NC(=O)[C@H](CCSC)NC(=O)[C@H](CCC(N)=O)NC(=O)[C@H](CCC(=O)O)NC(=O)[C@@H]1CCCN1C(=O)[C@@H](NC(=O)[C@H](C)NC(=O)[C@H](CC(N)=O)NC(=O)[C@H](CC(=O)O)NC(=O)CNC(=O)[C@@H]1CCCN1C(=O)[C@H](Cc1ccc(O)cc1)NC(=O)[C@@H](NC(=O)[C@@H]1CCCN1C(=O)[C@H](CCC(=O)O)NC(=O)[C@H](CC(C)C)NC(=O)[C@@H]1CCCN1)C(C)C)[C@@H](C)O)[C@@H](C)CC)C(=O)N[C@@H](CC(C)C)C(=O)N[C@H](C(=O)N[C@@H](CCCNC(=N)N)C(=O)N1CCC[C@H]1C(=O)N[C@@H](CCCNC(=N)N)C(=O)N[C@@H](Cc1ccc(O)cc1)C(N)=O)[C@@H](C)O)C(=O)O [18a, [K^30(E-Pam)]hPP2–36] (H-PLEPVYPGDNATPEQMAQYAADLRRYINK([γGlu-Palmitoyl])LTRPRY-NH2)
